Data: patent US20120258938A1, “Enzymatic Production or Chemical Synthesis and Uses for 5,7-Dienes and UVB Conversion Products Thereof” (priority 2008, published 2012)
One block for each molecule: values may come before it.

Key:
[1] = system: neonatal epidermal melanocytes; assay: Proliferation of neonatal epidermal melanocytes; type: cell-based; details: 48 hours
cytokeratin 14 = assay: Real-time RT PCR cytokeratin 14 mRNA, normal epidermal keratinocytes; type: cell-based, human; details: 10^−10 M
Experimental: RNA was extracted using an Absolutely RNA RT-PCR Miniprep Kit (Stratagene, La Jolla, Calif.). Real time PCR and reverse transcription products were purchased from Applied Biosystems, Foster City, Calif. Reverse transcription was performed using Taqman® Reverse Transcription Reagents. The following PCR products were used: cytokeratin 14: Hs00265033_m1, involucrin: Hs00846307_s1, CYP27A1: Hs00168003_ml, CYP27B1: Hs00168017_ml, 18SrRNA: Hs99999901_s1. The reaction was performed with Taqman® Universal PCR Master Mix; data were collected on an ABI Prism 7700 and analyzed on Sequence Detector 1.9.1. Specific gene amounts were related to 18SrRNA by comparative CT method.

VDRE = assay: Electrophoretic mobility shift assay for VDR activation (VDRE probe); type: cell-based, human; details: HaCaT nuclear extracts, 10 nM, 24 h
[2] = system: human breast carcinoma cell line MD-MBA-231; assay: Proliferation of MD-MBA-231 breast carcinoma cells; type: cell-based; details: MD-MBA-231, 48 h, [3H]-thymidine
Experimental: Cells were seeded in 96-well plate and incubated with 20-hydroxycholecalciferol in DMEM medium containing 5% FBS for 48 h (FIG. 25A) or 72 h (FIG. 25C) or for 24 h after a 12 h synchronization in serum free medium (FIG. 25D). […] was added for a final 18 h (FIGS. 25A, 25D) or 12 h (FIG. 25C) of incubation or cells were assessed with sulforhodamine assay (FIG. 25C). Data is shown as mean±SEM (n=5; FIG. 24C) or mean±SEM (n=6; FIGS. 24A, 24C, 24D) and was analyzed using GraphPrism 4.0.

WM164 = assay: Flow cytometry cell cycle and subG1, WM164; type: cell-based; details: WM164, 24 h
Experimental: MD-MBA-231, MG-63, PC-3, and WM164 cells were seeded into Petri dishes and then incubated for 24 h with 20-hydroxycholecalciferol in DMEM medium containing 5% FBS. Then cells were fixed, DNA stained and samples read with flow cytometer as described (7). Data was analyzed with Cell Quest (BD Biosciences). Cell cycle phases were assessed in viable cell populations and subG1 contents were calculated within whole cell population.

[3] = system: collagen-induced arthritis (CIA) in DBA/1 Lac J mice; assay: Type II collagen-induced arthritis (CIA) model; type: in vivo, mouse; details: i.p. every day at 2.5 μg/kg from day 14 post CII immunization
Text: The CIA model in DBA/1 Lac J mice has been widely studied as a model with some features of human RA, and has served as a reliable model to study various mediators and therapies of autoimmune arthritis. The immunization of DBA/1 Lac J mice with native bovine CII in complete Freund's adjuvant (CFA) is followed 10-14 days later by the onset of arthritis in the distal extremities. […] The arthritis is characterized by acute, subacute and chronic inflammation that correlates with histologic changes in distal extremity joints that progressively worsens during the subsequent 10 to 40 day period. The arthritis is dependent on the generation of inflammatory mediators from activation of the complement cascade by anti-CII antibodies, the infiltration of neutrophils, monocytes and T cells into the joint resulting in liberation of inflammatory cytokines and various proteases (42).
Twenty-four DBA/1 Lac J female mice 6 wks old were immunized with bovine CII in CFA. […] Arthritis severity was assessed every 3-4 days by two observers and each paw was given a score of 0=no swelling; 1=slight swelling and redness; 2=moderate swelling and redness; 3=marked swelling and redness; and 4=marked swelling and redness with deformity. […]

[4] = system: AbC1 hamster melanoma cells; assay: Soft agar colony formation, AbC1 melanoma; type: cell-based
Experimental: Growth and survival of prostate cancer cells (PC3) and melanoma cells SKMEL 188 and AbC1 was determined by following their ability to form colonies in soft agar. Cells growing in monolayer culture were trypsinized and resuspended (1,000 cells/well) in 0.25 ml medium containing 0.4% agarose and 5% charcoal stripped serum (HyClone).
Cell suspensions were added to 0.8% agar layer in 24 well plates. Compounds were added from ethanol stocks (100 μM) to final concentrations of 0.1 nM or 10 nM, in 100 μL media. Each condition was tested in quadruplicate. An ethanol solvent control (amount of ethanol equivalent to test) as well as a media-only control was included in the assay. […] […] Colonies were then counted under the microscope and number of units was calculated as number of colonies formed divided by the number of cells seeded×100.

[5] = system: K562 human chronic myeloid leukemia cells; assay: Erythroid differentiation of K562 cells; type: cell-based; details: 10^-7 M, 7 days
Experimental: (§1) K562 human chronic myeloid leukemia (erythroleukemia) and MEL mouse erytholeukemia cells were cultured in RPMI 1640 containing 10% FBS and treated with the drugs at concentrations 0.1 μM. A 0.1% ethanol (EtOH) or 2% DMSO were used as negative or positive control, respectively to estimate the vehicle effect and the ability of the cells to differentiate. Media were exchanged every 72 h and drugs added every day. Growth of cultures was estimated by counting number of viable cells (trypan blue negative cells) as described previously.
To estimate erythroid differentiation (production of hemoglobin), first the number of benzidine positive cells was evaluated after 2 and 7 days in culture. Cells were centrifuged and washed four times with PBS and resuspended in 1 mL of fresh PBS. For hemoglobin determination, a benzidine staining solution was freshly prepared by mixing one part of 30% hydrogen peroxide, one part of base stock solution of 3% benzidine in 90% acetic acid, and 5 parts of water. The solution was diluted 1:10 with the cell suspension and aliquoted in 4 wells in 24-well plate (250 μl each). After 10 min of incubation at RT benzidine-positive cells were counted under the microscope with a minimum of 200 cells scored.
Second, to define spectrophotometrically relative content of hemoglobin, equal number of cells (7×106) were washed with cold PBS and lysed for 20 min in 100 μL of lysis buffer (0.2% Triton X-100 in […] potassium phosphate buffer, pH 7.8). The lysates were centrifuged for 15 min at 1500 r.p.m. and 100 μL of the supernatant was incubated with 2 mL of benzidine solution (5 mg/mL in glacial acetic acid) and 2 ml 30% H2O2 for 10 min increases in comparison with the level of hemoglobin in mock-induced K562 or MEL cells.

[6] = system: mouse erytholeukemia cells (Mel); assay: Viable cell count, MEL cells; type: cell-based; details: 10^-7 M, 7 days
Experimental: as §1

Structure (SMILES): C=C1/C(=C\C=C2/CCC[C@]3(C)[C@@H]([C@H](C)CCCC(C)(C)O)CC[C@@H]23)C[C@@H](O)C[C@@H]1O [1α,25-dihydroxycholecalciferol, (5Z,7E)-9,10-secocholesta-5,7,10(19)-triene-1α,3β,25-triol, reference compound]
proliferation [1]: Dose dependent inhibition of the proliferation

EC50 [2]: 10 nM
Structure (SMILES): C=C1CC[C@H](O)C/C1=C/C=C1\CCC[C@@]2(C)[C@H]1CC[C@@H]2[C@@](C)(O)CCCC(C)C [20(OH)D3, (5Z,7E)-9,10-secocholesta-5,7,10(19)-triene-3β,20-diol]
cytokeratin 14 mRNA expression (cytokeratin 14; 1 h): 45 % of the control
cytokeratin 14 mRNA expression (cytokeratin 14; 6 h): 62 % of the control
binding of protein complexes to VDRE probe (VDRE): stimulated binding activity of protein complexes to VDRE probe
G0/G1 of viable cells (WM164): 70%
G2/M of viable cells (WM164): 7
S of viable cells (WM164): 24%
Viable Cells (WM164): 87
subG1 (WM164; whole cell population): 13
arthritis severity (CIA) [3]: suppresses CIA

Structure (SMILES): C=C1CC[C@H](O)C/C1=C/C=C1\CCC[C@]2(C)[C@@H](C(C)(O)CC(O)CC(C)C)CC[C@@H]12 (stereo partly drawn) [20,23-dihydroxycholecalciferol, (5Z,7E)-9,10-secocholesta-5,7,10(19)-triene-3β,20,23-triol]
decrease of colony formation in soft agar ([4]; AbC1, 0.1 nM): 30%
decrease of colony formation in soft agar ([4]; AbC1, 10 nM): approximately 50%

Structure (SMILES): C=C1CC[C@H](O)C/C1=C/C=C1\CCC[C@]2(C)[C@@H](C(C)=O)CC[C@@H]12 [pD3, (5Z,7E)-3β-hydroxy-9,10-secopregna-5,7,10(19)-trien-20-one]
differentiation of K562 cells [5]: induce differentiation
proliferation of mouse erytholeukemia cells (Mel) [6]: inhibit proliferation
